In patent US12250947B2, “Substituted azaspiro-cycles as herbicides” (SYNGENTA CROP PROTECTION AG, priority 2019, dated 2025):

Columns and labels:
Type in all cases: in vivo
[1] = system: Alopecurus myosuroides (ALOMY); test: Herbicidal glasshouse test, post-emergence, ALOMY; settings: 250 g/Ha, evaluated after 13 days
Description: (§1) Seeds of a variety of test species are sown in standard soil in pots (Lolium perenne (LOLPE), Setaria faberi (SETFA), Alopecurus myosuroides (ALOMY), Echinochloa crus-galli (ECHCG), Avena fatua (AVEFA)). […] Compounds are applied at 250 g/h. The test plants are then grown in a glasshouse under controlled conditions in a glasshouse (at 24/16° C., day/night; 14 hours light; 65% humidity) and watered twice daily. After 13 days for pre and post-emergence, the test is evaluated for the percentage damage caused to the plant. […] NT=not tested.

Lolium perenne (LOLPE) [2] = test: Herbicidal glasshouse test, post-emergence, LOLPE; settings: 250 g/Ha, evaluated after 13 days
Description: as §1

[3] = system: Alopecurus myosuroides (ALOMY); test: Herbicidal glasshouse test, pre-emergence, ALOMY; settings: 250 g/Ha, evaluated after 13 days
Description: as §1

Setaria faberi (SETFA) [4] = test: Herbicidal glasshouse test, pre-emergence, SETFA; settings: 250 g/Ha, evaluated after 13 days
Description: as §1

Setaria faberi (SETFA) [5] = test: Herbicidal glasshouse test, post-emergence, SETFA; settings: 250 g/Ha, evaluated after 13 days
Description: as §1

Avena fatua (AVEFA) [6] = test: Herbicidal glasshouse test, post-emergence, AVEFA; settings: 250 g/Ha, evaluated after 13 days
Description: as §1

Avena fatua (AVEFA) [7] = test: Herbicidal glasshouse test, pre-emergence, AVEFA; settings: 250 g/Ha, evaluated after 13 days
Description: as §1

[8] = system: Echinochloa crus-galli (ECHCG); test: Herbicidal glasshouse test, pre-emergence, ECHCG; settings: 250 g/Ha, evaluated after 13 days
Description: as §1

Lolium perenne (LOLPE) [9] = test: Herbicidal glasshouse test, pre-emergence, LOLPE; settings: 250 g/Ha, evaluated after 13 days
Description: as §1

[10] = system: Echinochloa crus-galli (ECHCG); test: Herbicidal glasshouse test, post-emergence, ECHCG; settings: 250 g/Ha, evaluated after 13 days
Description: as §1

wheat crop plants = test: Crop phytotoxicity comparison, post-emergence, wheat
Description: (§2) Seeds of a variety of test species are sown in standard soil in pots (Lolium perenne (LOLPE), Setaria faberi (SETFA), Alopecurus myosuroides (ALOMY), Echinochloa crus-galli (ECHCG), Avena fatua (AVEFA)). After cultivation for one day (pre-emergence) or after 8 days cultivation (post-emergence) under controlled conditions in a glasshouse (at 24/16° C., day/night; 14 hours light; 65% humidity), the plants are sprayed with an aqueous spray solution derived from the formulation of the technical active ingredient in acetone/water (50:50) solution containing 0.5% Tween 20 (polyoxyethelyene sorbitan monolaurate, CAS RN 9005-64-5). Compounds are applied at 250 g/h. The test plants are then grown in a glasshouse under controlled conditions in a glasshouse (at 24/16° C., day/night; 14 hours light; 65% humidity) and watered twice daily. After 13 days for pre and post-emergence, the test is evaluated for the percentage damage caused to the plant. The biological activities are shown in the following table on a five-point scale (5=80-100%; 4=60-79%; 3=40-59%; 2=20-39%; 1=0-19%). NT=not tested.
(§3) Using procedures outlines above, wheat and barley crop plants are treated, post-emergence with compounds A1 or A4 of the present invention or comparator compound C1 (Compound A-38 from WO2014/096289) at the application rates indicated. The compounds were also applied in conjunction with the safener compound cloquintocet-mexyl (CQC) at 50 g/ha.

barley crop plants = test: Crop phytotoxicity comparison, post-emergence, barley
Description: as §2, §3

Row | SMILES | percentage damage caused to the plant, five-point scale, ALOMY [1] | percentage damage caused to the plant, five-point scale, LOLPE (Lolium perenne (LOLPE) [2]) | percentage damage caused to the plant, five-point scale, ALOMY [3] | percentage damage caused to the plant, five-point scale, SETFA (Setaria faberi (SETFA) [4]) | percentage damage caused to the plant, five-point scale, SETFA (Setaria faberi (SETFA) [5]) | percentage damage caused to the plant, five-point scale, AVEFA (Avena fatua (AVEFA) [6]) | percentage damage caused to the plant, five-point scale, AVEFA (Avena fatua (AVEFA) [7]) | percentage damage caused to the plant, five-point scale, ECHCG [8] | percentage damage caused to the plant, five-point scale, LOLPE (Lolium perenne (LOLPE) [9]) | percentage damage caused to the plant, five-point scale, ECHCG [10] | damage to the wheat and barley crops compared to prior art compound C1 (wheat crop plants; wheat and barley crops, summary of Table B3) | % phytotoxicity observed, Barley (barley crop plants; rate 30 g/ha) | % phytotoxicity observed, Barley (barley crop plants; rate 60 g/ha) | % phytotoxicity observed, Wheat (wheat crop plants; rate 30 g/ha) | % phytotoxicity observed, Wheat (wheat crop plants; rate 60 g/ha) | % phytotoxicity observed, Wheat (wheat crop plants; rate 60 g/ha + safener cloquintocet-mexyl (CQC) at 50 g/ha)
1 | CC#Cc1cc(C)c(C2C(=O)CC3(CCN(C(=O)C(=O)OCC)CC3)CC2=O)c(C)c1 [Compound A2] | 4 (4=60-79%) | 5 (5=80-100%) | 0 | 5 (5=80-100%) | 5 (5=80-100%) | 4 (4=60-79%) | 1 (1=0-19%) | 4 (4=60-79%) | 3 (3=40-59%) | 5 (5=80-100%) |  |  |  |  |  | 
2 | CC#Cc1cc(C)c(C2C(=O)CC3(CCN(C(=O)C(=O)C(F)(F)F)CC3)CC2=O)c(C)c1 [Compound A3] | 5 (5=80-100%) | 5 (5=80-100%) | 5 (5=80-100%) | 5 (5=80-100%) | 5 (5=80-100%) | 5 (5=80-100%) | 4 (4=60-79%) | 5 (5=80-100%) | 5 (5=80-100%) | 5 (5=80-100%) | significantly less damaging |  |  |  |  | 
3 | CC#Cc1cc(C)c(C2C(=O)CC3(CCN(C(=O)C(=O)NC)CC3)CC2=O)c(C)c1 [Compound A4, 2-[9-(2,6-dimethyl-4-prop-1-ynyl-phenyl)-8,10-dioxo-3-azaspiro[5.5]undecan-3-yl]-N-methyl-2-oxo-acetamide] | 5 (5=80-100%) | 5 (5=80-100%) | 4 (4=60-79%) | 5 (5=80-100%) | 5 (5=80-100%) | 5 (5=80-100%) | 5 (5=80-100%) | 5 (5=80-100%) | 5 (5=80-100%) | 5 (5=80-100%) |  |  |  |  |  | 
4 | CC#Cc1cc(C)c(C2C(=O)CC3(CCN(C(=O)C(=O)N(C)C)CC3)CC2=O)c(C)c1 [Compound A5] | 5 (5=80-100%) | 5 (5=80-100%) | 5 (5=80-100%) | 5 (5=80-100%) | 5 (5=80-100%) | 5 (5=80-100%) | 4 (4=60-79%) | 5 (5=80-100%) | 5 (5=80-100%) | 5 (5=80-100%) |  |  |  |  |  | 
5 | CC#Cc1cc(C)c(C2C(=O)CC3(CCN(C(=O)C(=O)Nc4ccccn4)CC3)CC2=O)c(C)c1 [Compound A6] | 5 (5=80-100%) | 5 (5=80-100%) | 2 (2=20-39%) | 5 (5=80-100%) | 5 (5=80-100%) | 5 (5=80-100%) | 4 (4=60-79%) | 5 (5=80-100%) | 4 (4=60-79%) | 5 (5=80-100%) |  |  |  |  |  | 
6 | CC#Cc1cc(C)c(C2C(=O)CC3(CCN(C(=O)C(=O)C(C)(C)C)CC3)CC2=O)c(C)c1 [Compound A7] | 5 (5=80-100%) | 5 (5=80-100%) | 3 (3=40-59%) | 5 (5=80-100%) | 5 (5=80-100%) | 5 (5=80-100%) | 3 (3=40-59%) | 5 (5=80-100%) | 5 (5=80-100%) | 5 (5=80-100%) |  |  |  |  |  | 
7 | CC#Cc1cc(C)c(C2C(=O)CC3(CCN(C(=O)C(N)=O)CC3)CC2=O)c(C)c1 [Compound A8] | 5 (5=80-100%) | 5 (5=80-100%) | 5 (5=80-100%) | 5 (5=80-100%) | 5 (5=80-100%) | 5 (5=80-100%) | 5 (5=80-100%) | 5 (5=80-100%) | 5 (5=80-100%) | 5 (5=80-100%) |  |  |  |  |  | 
8 | CC#Cc1cc(C)c(C2C(=O)CC3(CCN(C(=O)C(=O)NC(C)(C)C)CC3)CC2=O)c(C)c1 [Compound A9, N-tert-butyl-2-[9-(2,6-dimethyl-4-prop-1-ynyl-phenyl)-8,10-dioxo-3-azaspiro[5.5]undecan-3-yl]-2-oxo-acetamide] | 4 (4=60-79%) | 5 (5=80-100%) | 5 (5=80-100%) | 5 (5=80-100%) | 5 (5=80-100%) | 5 (5=80-100%) | 5 (5=80-100%) | 5 (5=80-100%) | 5 (5=80-100%) | 5 (5=80-100%) |  |  |  |  |  | 
9 | CC#Cc1cc(C)c(C2C(=O)CC3(CCOCC3)CC2=O)c(C)c1 [Compound C1, reference compound] |  |  |  |  |  |  |  |  |  |  |  | 80% | 90% | 40% | 70% | 60%
10 | CC#Cc1cc(C)c(C2=C(OC(=O)OC)CC3(CCN(C(=O)C(C)=O)CC3)CC2=O)c(C)c1 [Compound P1, [9-(2,6-dimethyl-4-prop-1-ynyl-phenyl)-10-oxo-3-(2-oxopropanoyl)-3-azaspiro[5.5]undec-8-en-8-yl] methyl carbonate] | 5 (5=80-100%) | 5 (5=80-100%) | 5 (5=80-100%) | 5 (5=80-100%) | 5 (5=80-100%) | 5 (5=80-100%) | 5 (5=80-100%) | 5 (5=80-100%) | 5 (5=80-100%) | 5 (5=80-100%) |  |  |  |  |  | 
